Test results from patent publication US20160159816A1, “SUBSTITUTED THIENOPYRIMIDINES AND PHARMACEUTICAL USE THEREOF” (BAYER PHARMA AKTIENGESELLSCHAFT, priority 2013, published 2016).

Biological target: T1, human full-length MKNK1 (Homo sapiens, UniProt Q9BUB5, T385D)
T1 construct: GST (N); purchased Carna Biosciences 02-145; host or cells: insect cells, baculovirus expression system
Experiment: MKNK1 kinase high ATP assay (TR-FRET)
Format: biochemical
Conditions: high ATP (2 mM), after preincubation with MKNK1; compounds of the present invention (Table 1a)
Description: MKNK1-inhibitory activity at high ATP of compounds of the present invention after their preincubation with MKNK1 was quantified employing the TR-FRET-based MKNK1 high ATP assay as described in the following paragraphs.
A recombinant fusion protein of Glutathione-S-Transferase (GST, N-terminally) and human full-length MKNK1 (amino acids 1-424 and T344D of accession number BAA 19885.1), expressed in insect cells using baculovirus expression system and purified via glutathione sepharose affinity chromatography, was purchased from Carna Biosciences (product no 02-145) and used as enzyme. As substrate for the kinase reaction the biotinylated peptide biotin-Ahx-IKKRKLTRRKSLKG (C-terminus in amide form) was used, which can be purchased e.g. from the company Biosyntan (Berlin-Buch, Germany).
For the assay 50 nL of a 100 fold concentrated solution of the test compound in DMSO was pipetted into a black low volume 384 well microtiter plate (Greiner Bio-One, Frickenhausen, Germany), 2 μL of a solution of MKNK1 in aqueous assay buffer [50 mM HEPES pH 7.5, 5 mM MgCl2, 1.0 mM dithiothreitol, 0.005% (v/v) Nonidet-P40 (Sigma)] was added and the mixture was incubated for 15 min at 22° C. to allow pre-binding of the test compounds to the enzyme before the start of the kinase reaction. Then the kinase reaction was started by the addition of 3 μL of a solution of adenosine-tri-phosphate (ATP, 3.3 mM=>final conc. in the 5 μL assay volume is 2 mM) and substrate (0.1 μM=>final conc. in the 5 μL assay volume is 0.06 μM) in assay buffer and the resulting mixture was incubated for a reaction time of 30 min at 22° C. The concentration of MKNK1 was adjusted depending of the activity of the enzyme lot and was chosen appropriate to have the assay in the linear range, typical concentrations were in the range of 0.003 μg/mL. The reaction was stopped by the addition of 5 μL of a solution of TR-FRET detection reagents (5 nM streptavidine-XL665 [Cisbio Bioassays, Codolet, France] and 1 nM anti-ribosomal protein […] (pSer236)-antibody from Invitrogen [#44921G] and 1 nM LANCE EU-W1024 labeled ProteinG [Perkin-Elmer, product no. AD0071]) in an aqueous EDTA-solution (100 mM EDTA, 0.1% (w/v) bovine serum albumin in 50 mM HEPES pH 7.5).
The resulting mixture was incubated for 1 h at 22° C. to allow the formation of complex between the phosphorylated biotinylated peptide and the detection reagents. Subsequently the amount of phosphorylated substrate was evaluated by measurement of the resonance energy transfer from the Eu-chelate to the streptavidine-XL. Therefore, the fluorescence emissions at 620 nm and 665 nm after excitation at 350 nm were measured in a TR-FRET reader, e.g. a Rubystar (BMG Labtechnologies, Offenburg, Germany) or a Viewlux (Perkin-Elmer). The ratio of the emissions at 665 nm and at […] was taken as the measure for the amount of phosphorylated substrate. The data were normalised (enzyme reaction without inhibitor=0% inhibition, all other assay components but no enzyme=100% inhibition). […] Table 1a lists MKNK1 high ATP IC50 values of some compounds of the present invention.

T1 sequence (Q9BUB5 1-424 isoform Q9BUB5-2 T344D): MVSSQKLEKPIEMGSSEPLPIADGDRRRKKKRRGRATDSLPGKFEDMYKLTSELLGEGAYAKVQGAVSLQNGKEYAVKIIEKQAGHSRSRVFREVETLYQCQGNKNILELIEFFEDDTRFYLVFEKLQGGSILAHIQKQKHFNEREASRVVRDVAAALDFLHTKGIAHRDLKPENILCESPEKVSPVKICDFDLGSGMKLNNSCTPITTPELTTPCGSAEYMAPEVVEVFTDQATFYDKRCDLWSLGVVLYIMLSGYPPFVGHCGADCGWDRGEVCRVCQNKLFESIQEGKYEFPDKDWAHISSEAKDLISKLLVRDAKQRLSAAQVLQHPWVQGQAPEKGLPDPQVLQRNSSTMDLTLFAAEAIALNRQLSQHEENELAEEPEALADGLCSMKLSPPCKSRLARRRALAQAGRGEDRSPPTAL

| SMILES | IC50 [nM] |
| --- | --- |
| COc1cc2[nH]ncc2cc1Nc1ncnc2sc3c(c12)CC[C@@](C)(C(=O)N1CCOCC1)C3 [Example 53, (7R) {4-[(6-Methoxy-1H-indazol-5-yl)amino]-7-methyl-5,6,7,8-tetrahydro[1]benzothieno[2,3-d]pyrimidin-7-yl}(morpholin-4-yl)methanone] | 18.9 |
| COc1cc2[nH]ncc2cc1Nc1ncnc2sc3c(c12)CC[C@@](C)(C(=O)N1CCOC[C@H]1C)C3 [Example 55, (7R) {4-[(6-Methoxy-1H-indazol-5-yl)amino]-7-methyl-5,6,7,8-tetrahydro[1]benzothieno[2,3-d]pyrimidin-7-yl}[(3R)-3-methylmorpholin-4-yl]methanone] | 33.3 |
| COCCN(C)C(=O)[C@]1(C)CCc2c(sc3ncnc(Nc4cc5cn[nH]c5cc4OC)c23)C1 [Example 57, (7R) N-(2-Methoxyethyl)-4-[(6-methoxy-1H-indazol-5-yl)amino]-N,7-dimethyl-5,6,7,8-tetrahydro[1]benzothieno[2,3-d]pyrimidine-7-carboxamide] | 21.4 |
| COc1cc2[nH]ncc2cc1Nc1ncnc2sc3c(c12)CC[C@](C)(C(=O)N(C)OC)C3 [Example 58, (7S) N-Methoxy-4-[(6-methoxy-1H-indazol-5-yl)amino]-N,7-dimethyl-5,6,7,8-tetrahydro[1]benzothieno[2,3-d]pyrimidine-7-carboxamide] | 2.5 |
| COc1cc2[nH]ncc2cc1Nc1ncnc2sc3c(c12)CC[C@@](C)(C(=O)N1CCC1)C3 [Example 61, (7R) Azetidin-1-yl{(7S)-4-[(6-methoxy-1H-indazol-5-yl)amino]-7-methyl-5,6,7,8-tetrahydro[1]benzothieno[2,3-d]pyrimidin-7-yl}methanone] | 11.7 |
| CC[C@@]1(C(=O)N2CCOCC2)CCc2c(sc3ncnc(Nc4cc5cn[nH]c5cc4OC)c23)C1 [Example 62, (7R) {7-Ethyl-4-[(6-methoxy-1H-indazol-5-yl)amino]-5,6,7,8-tetrahydro[1]benzothieno[2,3-d]pyrimidin-7-yl}(morpholin-4-yl)methanone] | 31.7 |
| CC[C@@]1(C(=O)N(C)CCOC)CCc2c(sc3ncnc(Nc4cc5cn[nH]c5cc4OC)c23)C1 [Example 64, (7R) 7-Ethyl-N-(2-methoxyethyl)-4-[(6-methoxy-1H-indazol-5-yl)amino]-N-methyl-5,6,7,8-tetrahydro[1]benzothieno[2,3-d]pyrimidine-7-carboxamide] | 26.3 |
| CC[C@@]1(C(=O)N(C)OC)CCc2c(sc3ncnc(Nc4cc5cn[nH]c5cc4OC)c23)C1 [Example 66, (7R) 7-Ethyl-N-methoxy-4-[(6-methoxy-1H-indazol-5-yl)amino]-N-methyl-5,6,7,8-tetrahydro[1]benzothieno[2,3-d]pyrimidine-7-carboxamide] | 20.4 |
| CC[C@@]1(C(=O)N2CCC2)CCc2c(sc3ncnc(Nc4cc5cn[nH]c5cc4OC)c23)C1 [Example 68, (7R) Azetidin-1-yl{(7S)-7-ethyl-4-[(6-methoxy-1H-indazol-5-yl)amino]-5,6,7,8-tetrahydro[1]benzothieno[2,3-d]pyrimidin-7-yl}methanone] | 24.6 |
| CC[C@]1(C(=O)N(C)C(C)C)CCc2c(sc3ncnc(Nc4cc5cn[nH]c5cc4OC)c23)C1 [Example 73, (7S) 7-Ethyl-N-isopropyl-4-[(6-methoxy-1H-indazol-5-yl)amino]-N-methyl-5,6,7,8-tetrahydro[1]benzothieno[2,3-d]pyrimidine-7-carboxamide] | 1.4 |

More lines, in order of falling IC50, values ahead:

| IC50 [nM] | SMILES |
| --- | --- |
| 50.9 | CC[C@@]1(C(=O)N2C[C@@H](C)O[C@@H](C)C2)CCc2c(sc3ncnc(Nc4cc5cn[nH]c5cc4OC)c23)C1 [Example 70, (7R) [(2R,6S)-2,6-Dimethylmorpholin-4-yl]{7-ethyl-4-[(6-methoxy-1H-indazol-5-yl)amino]-5,6,7,8-tetrahydro[1]benzothieno[2,3-d]pyrimidin-7-yl}methanone] |
| 38.4 | CC[C@@]1(C(=O)N(C)C(C)C)CCc2c(sc3ncnc(Nc4cc5cn[nH]c5cc4OC)c23)C1 [Example 72, (7R) 7-Ethyl-N-isopropyl-4-[(6-methoxy-1H-indazol-5-yl)amino]-N-methyl-5,6,7,8-tetrahydro[1]benzothieno[2,3-d]pyrimidine-7-carboxamide] |
| 12.9 | COc1cc2[nH]ncc2cc1Nc1ncnc2sc3c(c12)CC[C@@](C)(C(=O)N(C)OC)C3 [Example 59, (7R) N-Methoxy-4-[(6-methoxy-1H-indazol-5-yl)amino]-N,7-dimethyl-5,6,7,8-tetrahydro[1]benzothieno[2,3-d]pyrimidine-7-carboxamide] |
| 4.5 | COCCN(C)C(=O)[C@@]1(C)CCc2c(sc3ncnc(Nc4cc5cn[nH]c5cc4OC)c23)C1 [Example 56, (7S) N-(2-Methoxyethyl)-4-[(6-methoxy-1H-indazol-5-yl)amino]-N,7-dimethyl-5,6,7,8-tetrahydro[1]benzothieno[2,3-d]pyrimidine-7-carboxamide] |
| 4.3 | COc1cc2[nH]ncc2cc1Nc1ncnc2sc3c(c12)CC[C@](C)(C(=O)N1CCOC[C@H]1C)C3 [Example 54, (7S) {4-[(6-Methoxy-1H-indazol-5-yl)amino]-7-methyl-5,6,7,8-tetrahydro[1]benzothieno[2,3-d]pyrimidin-7-yl}[(3R)-3-methylmorpholin-4-yl]methanone] |
| 3.7 | COc1cc2[nH]ncc2cc1Nc1ncnc2sc3c(c12)CC[C@](C)(C(=O)N1CCC1)C3 [Example 60, (7S) Azetidin-1-yl{(7S)-4-[(6-methoxy-1H-indazol-5-yl)amino]-7-methyl-5,6,7,8-tetrahydro[1]benzothieno[2,3-d]pyrimidin-7-yl}methanone] |
| 3.4 | CC[C@]1(C(=O)N2CCC2)CCc2c(sc3ncnc(Nc4cc5cn[nH]c5cc4OC)c23)C1 [Example 69, (7S) Azetidin-1-yl{(7S)-7-ethyl-4-[(6-methoxy-1H-indazol-5-yl)amino]-5,6,7,8-tetrahydro[1]benzothieno[2,3-d]pyrimidin-7-yl}methanone] |
| 3 | CC[C@]1(C(=O)N(C)CCOC)CCc2c(sc3ncnc(Nc4cc5cn[nH]c5cc4OC)c23)C1 [Example 65, (7S) 7-Ethyl-N-(2-methoxyethyl)-4-[(6-methoxy-1H-indazol-5-yl)amino]-N-methyl-5,6,7,8-tetrahydro[1]benzothieno[2,3-d]pyrimidine-7-carboxamide] |
| 2 | COc1cc2[nH]ncc2cc1Nc1ncnc2sc3c(c12)CC[C@](C)(C(=O)N1CCOCC1)C3 [Example 52, (7S) {4-[(6-Methoxy-1H-indazol-5-yl)amino]-7-methyl-5,6,7,8-tetrahydro[1]benzothieno[2,3-d]pyrimidin-7-yl}(morpholin-4-yl)methanone] |
| 1.8 | CC[C@]1(C(=O)N2CCOCC2)CCc2c(sc3ncnc(Nc4cc5cn[nH]c5cc4OC)c23)C1 [Example 63, (7S) {7-Ethyl-4-[(6-methoxy-1H-indazol-5-yl)amino]-5,6,7,8-tetrahydro[1]benzothieno[2,3-d]pyrimidin-7-yl}(morpholin-4-yl)methanone] |
| 1.8 | CC[C@]1(C(=O)N(C)OC)CCc2c(sc3ncnc(Nc4cc5cn[nH]c5cc4OC)c23)C1 [Example 67, (7S) 7-Ethyl-N-methoxy-4-[(6-methoxy-1H-indazol-5-yl)amino]-N-methyl-5,6,7,8-tetrahydro[1]benzothieno[2,3-d]pyrimidine-7-carboxamide] |
| 1.7 | CC[C@]1(C(=O)N(C)C)CCc2c(sc3ncnc(Nc4cc5cn[nH]c5cc4OC)c23)C1 [Example 51, (7S) 7-Ethyl-4-[(6-methoxy-1H-indazol-5-yl)amino]-N,N-dimethyl-5,6,7,8-tetrahydro[1]benzothieno[2,3-d]pyrimidine-7-carboxamide] |
| 1.6 | CC[C@]1(C(=O)N2C[C@@H](C)O[C@@H](C)C2)CCc2c(sc3ncnc(Nc4cc5cn[nH]c5cc4OC)c23)C1 [Example 71, (7S) [(2R,6S)-2,6-Dimethylmorpholin-4-yl]{7-ethyl-4-[(6-methoxy-1H-indazol-5-yl)amino]-5,6,7,8-tetrahydro[1]benzothieno[2,3-d]pyrimidin-7-yl}methanone] |
